According to ChEMBL document CHEMBL4308834, “Novel Allosteric Activators for Ferroptosis Regulator Glutathione Peroxidase 4” (J Med Chem, 2018):
pKd: −log10 of the molar value. Calls of active or inactive are those of the source. The rule behind the calls is not given here.

Experiments:
[1] = target: T1, Prostaglandin G/H synthase 2 (Homo sapiens) (UniProt P35354); assay: Inhibition of COX2 (unknown origin) at 500 uM preincubated for 15 mins followed by arachidonic acid substrate addition in presence of TMPD by spectrophotometric method
T1 sequence (whole entry): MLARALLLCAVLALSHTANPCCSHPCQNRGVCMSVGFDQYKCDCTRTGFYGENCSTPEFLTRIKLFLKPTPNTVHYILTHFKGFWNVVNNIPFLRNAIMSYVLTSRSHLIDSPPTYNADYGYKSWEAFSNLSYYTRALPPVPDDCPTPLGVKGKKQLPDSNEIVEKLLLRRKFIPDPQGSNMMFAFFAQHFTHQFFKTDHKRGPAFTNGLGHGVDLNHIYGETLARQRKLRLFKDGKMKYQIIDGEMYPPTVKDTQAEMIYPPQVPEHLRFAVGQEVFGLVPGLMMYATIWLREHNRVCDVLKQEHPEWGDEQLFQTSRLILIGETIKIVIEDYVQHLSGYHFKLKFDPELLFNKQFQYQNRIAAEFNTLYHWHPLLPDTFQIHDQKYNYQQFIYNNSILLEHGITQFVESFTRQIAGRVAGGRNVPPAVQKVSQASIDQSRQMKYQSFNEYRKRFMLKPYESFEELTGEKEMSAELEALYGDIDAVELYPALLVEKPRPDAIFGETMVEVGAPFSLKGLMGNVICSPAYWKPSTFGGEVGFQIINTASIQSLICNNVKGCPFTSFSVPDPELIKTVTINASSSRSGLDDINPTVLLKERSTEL

Homo sapiens [2] = organism: Homo sapiens; assay: (§1) Activation of recombinant human GPX4 D21A/U46C double mutant expressed in Escherichia coli M15 assessed as increase in oxidized glutathione-mediated oxidation of NADPH to NADP+ using tert-butyl hydroperoxide as substrate preincubated for 5 mins followed by substrate addition measured for 6 mins by glutathione reductase enzyme coupled fluorescence assay relative to GPX4 U46C mutant control
Homo sapiens [3] = organism: Homo sapiens; assay: as §1, with “D23A/U46C” for “D21A/U46C”
[4] = target: T2, Phospholipid hydroperoxide glutathione peroxidase GPX4 (Homo sapiens) (UniProt P36969); assay: Activation of GPX4 (unknown origin) expressed in HEK293T cells harboring luc2P/NF-kBRE/Hygro plasmid assessed as inhibition of IL1beta-stimulated NFkB activation preincubated for 30 mins followed by […] and measured after 6 hrs by luciferase reporter gene assay; format: cell-based
T2 sequence (whole entry): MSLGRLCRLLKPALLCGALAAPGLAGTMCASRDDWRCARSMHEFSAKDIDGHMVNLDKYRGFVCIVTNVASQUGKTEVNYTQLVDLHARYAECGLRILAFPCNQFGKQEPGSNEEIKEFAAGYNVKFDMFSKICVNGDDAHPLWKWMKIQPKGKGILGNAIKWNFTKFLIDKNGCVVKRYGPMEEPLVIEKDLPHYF

[5] = target: T2, Phospholipid hydroperoxide glutathione peroxidase GPX4 (Homo sapiens); assay: Activation of GPX4 in A23187-stimulated human PMN leukocytes assessed as increase in 5-HETE/LTB4 ratio preincubated for 15 mins followed by A23187 addition and measured after 120 mins by LC-MS analysis
[6] = Iron chelating activity assessed as compound-Fe2+ complex formation after 10 mins by Prussian blue assay
Homo sapiens [7] = organism: Homo sapiens; assay: as §1, with “recombinant His-tagged” for “recombinant”, “human cytosolic” for “human”, “U46C” for “D21A/U46C double”, “NADP+ at 0.4 to 250 uM” for “NADP+”, “to” for “to GPX4 U46C mutant”
[8] = Zinc chelating activity in presence of ZnSO4 after 10 mins by crystal violet staining based assay
[9] = target: T2, Phospholipid hydroperoxide glutathione peroxidase GPX4 (Homo sapiens); assay: Activation of GPX4 in A23187-stimulated human PMN leukocytes assessed as increase in 15-HETE preincubated for 15 mins followed by A23187 addition and measured after 120 mins by LC-MS analysis
Homo sapiens [10] = organism: Homo sapiens; assay: as §1, with “recombinant His-tagged” for “recombinant”, “human cytosolic” for “human”, “U46C” for “D21A/U46C double”, “assay” for “assay relative to GPX4 U46C mutant control”
[11] = target: Phospholipid hydroperoxide glutathione peroxidase GPX4 (Mus musculus) (UniProt O70325); assay: Activation of GPX4 in MEF assessed as increase in […] protection against CHOOH-induced cell death at 200 uM; format: cell-based
[12] = target: T2, Phospholipid hydroperoxide glutathione peroxidase GPX4 (Homo sapiens); assay: Activation of GPX4 (unknown origin) expressed in HEK293T cells harboring luc2P/NF-kBRE/Hygro plasmid assessed as inhibition of TNFalpha-stimulated NFkB activation preincubated for 30 mins followed by TNFalpha addition and measured after 6 hrs by luciferase reporter gene assay; format: cell-based
[13] = Binding affinity to recombinant His-tagged human cytosolic GPX4 U46C mutant expressed in Escherichia coli M15 by SPR analysis
[14] = target: Prostaglandin G/H synthase 1 (Homo sapiens) (UniProt P23219); assay: Inhibition of COX1 (unknown origin) at 500 uM preincubated for 15 mins followed by arachidonic acid substrate addition in presence of TMPD by spectrophotometric method
[15] = target: T3, Polyunsaturated fatty acid 5-lipoxygenase (Homo sapiens) (UniProt P09917); assay: Inhibition of human 5-LOX at 500 uM preincubated for 10 mins followed by arachidonic acid substrate addition in presence of H2DCFDA by spectrophotometric method
T3 sequence (whole entry): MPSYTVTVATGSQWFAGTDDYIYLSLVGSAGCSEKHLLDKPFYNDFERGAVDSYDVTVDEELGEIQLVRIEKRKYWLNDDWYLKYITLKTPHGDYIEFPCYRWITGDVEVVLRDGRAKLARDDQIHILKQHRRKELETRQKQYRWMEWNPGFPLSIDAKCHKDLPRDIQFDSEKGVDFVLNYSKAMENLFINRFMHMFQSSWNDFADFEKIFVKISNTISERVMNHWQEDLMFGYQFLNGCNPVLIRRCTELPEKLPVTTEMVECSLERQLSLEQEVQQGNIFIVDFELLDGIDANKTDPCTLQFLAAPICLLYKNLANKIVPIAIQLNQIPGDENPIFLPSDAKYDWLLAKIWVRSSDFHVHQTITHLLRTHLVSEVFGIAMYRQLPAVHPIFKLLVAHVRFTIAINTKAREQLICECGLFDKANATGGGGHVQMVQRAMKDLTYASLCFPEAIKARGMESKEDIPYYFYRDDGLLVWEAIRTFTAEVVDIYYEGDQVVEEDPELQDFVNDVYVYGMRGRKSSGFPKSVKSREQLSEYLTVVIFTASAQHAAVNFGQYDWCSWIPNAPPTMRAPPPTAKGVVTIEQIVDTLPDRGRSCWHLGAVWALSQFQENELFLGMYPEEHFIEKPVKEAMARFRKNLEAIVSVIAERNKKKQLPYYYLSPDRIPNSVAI

Homo sapiens [16] = organism: Homo sapiens; assay: as §1, with “D21A/D23A/U46C” for “D21A/U46C double”

Prostaglandin G/H synthase 1 (Homo sapiens), sequence (P23219 whole entry): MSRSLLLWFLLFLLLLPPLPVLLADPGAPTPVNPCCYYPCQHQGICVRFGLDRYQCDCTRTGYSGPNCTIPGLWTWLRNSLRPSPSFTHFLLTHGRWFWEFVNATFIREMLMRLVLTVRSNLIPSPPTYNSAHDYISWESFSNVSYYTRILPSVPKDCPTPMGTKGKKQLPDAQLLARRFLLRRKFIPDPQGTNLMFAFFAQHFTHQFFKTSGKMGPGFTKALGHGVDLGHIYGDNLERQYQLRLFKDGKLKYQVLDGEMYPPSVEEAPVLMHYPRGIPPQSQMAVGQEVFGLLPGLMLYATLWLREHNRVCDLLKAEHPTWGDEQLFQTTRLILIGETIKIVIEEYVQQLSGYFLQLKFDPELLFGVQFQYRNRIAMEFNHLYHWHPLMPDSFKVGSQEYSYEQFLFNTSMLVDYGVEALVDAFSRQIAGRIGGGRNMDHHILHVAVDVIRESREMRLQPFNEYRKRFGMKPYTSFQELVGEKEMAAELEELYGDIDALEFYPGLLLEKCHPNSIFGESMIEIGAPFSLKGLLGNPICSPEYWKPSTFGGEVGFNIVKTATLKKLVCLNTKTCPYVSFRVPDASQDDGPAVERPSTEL
Phospholipid hydroperoxide glutathione peroxidase GPX4 (Mus musculus), sequence (O70325 whole entry): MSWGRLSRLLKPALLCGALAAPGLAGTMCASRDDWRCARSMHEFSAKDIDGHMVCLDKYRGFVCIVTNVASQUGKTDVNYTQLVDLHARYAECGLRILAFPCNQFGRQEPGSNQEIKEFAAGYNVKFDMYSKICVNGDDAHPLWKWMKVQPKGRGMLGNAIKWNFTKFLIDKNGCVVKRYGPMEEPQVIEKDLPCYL

- inhibition [1]: inactive
- EC150 (Homo sapiens [2]): 618 µM
- EC150 (Homo sapiens [3]): 372 µM
- inhibition [4]: Dose-dependent effect
- Activity [5]: Dose-dependent effect
- Activity [6]: inactive
- Emax (Homo sapiens [7]): 263%
- Activity [8]: inactive
- Activity [9]: Dose-dependent effect
- Activity (Homo sapiens [10]): Dose-dependent effect
- EC150 (Homo sapiens [10]): 248 µM
- inhibition [12]: Dose-dependent effect
- inhibition [14]: inactive
- inhibition [15]: inactive
- EC150 (Homo sapiens [16]): > 1000 µM
Structure (SMILES): NS(=O)(=O)c1ccc(NC(S)=NCc2ccc(Cl)cc2)cc1
- Activity [11]: Active
- pKd [13]: 4.20
